From ChEMBL document CHEMBL1201862, “PubChem BioAssay data set” (2004)
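1) Cells in 96-well plates. 2) Compound, 48 h, 5 concentrations. 3) Linear interpolation between surrounding doses. 4) Unreached endpoint = highest concentration. Here, GI50 denotes the concentration required for 50% inhibition of growth.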 Active and inactive are the calls of the source. Cut-off read from the data, not from the text of the source: active = GI50 up to about 1.1 µM and inactive = higher.

How the values were obtained:
Experiment in all cases: NCI-60 cell line screen, 48 h
SNB-19 = test system: SNB-19
HOP-62 = test system: HOP-62
SF-539 = test system: SF-539
HT-29 = test system: HT-29
OVCAR-4 = test system: OVCAR-4
EKVX = test system: EKVX
SK-OV-3 = test system: SK-OV-3
HOP-92 = test system: HOP-92
SR = test system: SR
M19-MEL = test system: M19-MEL
ACHN = test system: ACHN
SW-620 = test system: SW-620
IGROV-1 = test system: IGROV-1
U-251 = test system: U-251
SK-MEL-5 = test system: SK-MEL-5
LXFL 529 = test system: LXFL 529
NCI-H23 = test system: NCI-H23
UACC-62 = test system: UACC-62
HCT-15 = test system: HCT-15
DMS-273 = test system: DMS-273
M14 = test system: M14
OVCAR-3 = test system: OVCAR-3
SF-295 = test system: SF-295
786-0 = test system: 786-0
RPMI-8226 = test system: RPMI-8226
CAKI-1 = test system: CAKI-1
CCRF-CEM = test system: CCRF-CEM
K562 = test system: K562
HCC 2998 = test system: HCC 2998
RXF 631 = test system: RXF 631
DLD-1 = test system: DLD-1
HOP-18 = test system: HOP-18
NCI-H460 = test system: NCI-H460
RXF 393 = test system: RXF 393
SNB-75 = test system: SNB-75
HCT-116 = test system: HCT-116
NCI-H522 = test system: NCI-H522
UACC-257 = test system: UACC-257
COLO 205 = test system: COLO 205
LOX IMVI = test system: LOX IMVI
KM12 = test system: KM12
OVCAR-8 = test system: OVCAR-8
A498 = test system: A498
SN12C = test system: SN12C
OVCAR-5 = test system: OVCAR-5
Malme-3M = test system: Malme-3M
UO-31 = test system: UO-31
A549 = test system: A549
NCI-H226 = test system: NCI-H226
SNB-78 = test system: SNB-78
SK-MEL-2 = test system: SK-MEL-2
TK-10 = test system: TK-10
SF-268 = test system: SF-268
SK-MEL-28 = test system: SK-MEL-28
MOLT-4 = test system: MOLT-4
KM-20L2 = test system: KM-20L2
XF498 = test system: XF498
HL-60 = test system: HL-60
DMS-114 = test system: DMS-114

Measured: GI50

CC(=O)OC1C(COC(N)=O)OC(n2c(-c3ccc(C)cc3)cc(-c3ccccc3)c(C#N)c2=O)C(OC(C)=O)C1OC(C)=O (centres undefined)
inactive: SNB-19 > 100 µM | HOP-62 > 100 µM | SF-539 > 100 µM | HT-29 > 100 µM | OVCAR-4 > 100 µM | EKVX > 100 µM | SK-OV-3 > 100 µM | HOP-92 9.86 µM | SR > 100 µM | M19-MEL > 100 µM | ACHN > 100 µM | SW-620 > 100 µM | IGROV-1 > 100 µM | U-251 > 100 µM | SK-MEL-5 > 100 µM | LXFL 529 > 100 µM | NCI-H23 > 100 µM | UACC-62 > 100 µM | DMS-273 > 100 µM | M14 > 100 µM | OVCAR-3 > 100 µM | SF-295 > 100 µM | 786-0 > 100 µM | RPMI-8226 > 100 µM | CAKI-1 > 100 µM | CCRF-CEM > 100 µM | K562 > 100 µM | HCC 2998 53.7 µM | RXF 631 > 100 µM | DLD-1 > 100 µM | HOP-18 > 100 µM | NCI-H460 96.2 µM | RXF 393 > 100 µM | SNB-75 44 µM | HCT-116 > 100 µM | NCI-H522 > 100 µM | UACC-257 > 100 µM | COLO 205 > 100 µM | LOX IMVI > 100 µM | KM12 > 100 µM | OVCAR-8 > 100 µM | A498 > 100 µM | SN12C > 100 µM | OVCAR-5 > 100 µM | Malme-3M > 100 µM | UO-31 71.9 µM | A549 > 100 µM | NCI-H226 > 100 µM | SNB-78 > 100 µM | SK-MEL-2 > 100 µM | TK-10 > 100 µM | SF-268 > 100 µM | SK-MEL-28 > 100 µM | MOLT-4 > 100 µM | KM-20L2 > 100 µM
> 100 µM: HCT-15

C/C(CC(=O)Nc1ccc([N+](=O)[O-])cc1)=N\Nc1ccc([N+](=O)[O-])cc1[N+](=O)[O-]
inactive: HOP-62 50.1 µM | SF-539 41 µM | HT-29 > 100 µM | EKVX > 100 µM | SK-OV-3 > 100 µM | HOP-92 73.6 µM | M19-MEL > 100 µM | ACHN 10.8 µM | SW-620 > 100 µM | IGROV-1 71.8 µM | U-251 > 100 µM | SK-MEL-5 47.4 µM | LXFL 529 20.9 µM | NCI-H23 > 100 µM | UACC-62 49 µM | DMS-273 18.5 µM | M14 > 100 µM | OVCAR-3 98.2 µM | SF-295 47.5 µM | 786-0 > 100 µM | RPMI-8226 56.4 µM | CCRF-CEM 45 µM | K562 20.2 µM | XF498 86.7 µM | HCC 2998 13.9 µM | RXF 631 > 100 µM | DLD-1 39.4 µM | HL-60 31.9 µM | NCI-H460 44.4 µM | RXF 393 > 100 µM | SNB-75 > 100 µM | HCT-116 59.7 µM | NCI-H522 25.9 µM | UACC-257 47.1 µM | COLO 205 89.7 µM | LOX IMVI 10.7 µM | KM12 29.3 µM | OVCAR-8 > 100 µM | A498 59.8 µM | OVCAR-5 > 100 µM | DMS-114 48.5 µM | Malme-3M > 100 µM | UO-31 20.6 µM | A549 44.7 µM | NCI-H226 52.7 µM | SNB-78 > 100 µM | SK-MEL-2 > 100 µM | TK-10 > 100 µM | SF-268 62.1 µM | SK-MEL-28 > 100 µM | MOLT-4 13.1 µM | KM-20L2 32.8 µM
7.66 µM: HCT-15
